For experiment [1], the target named is T1, TAAR1 (Mus musculus, UniProt Q923Y8).
T1 construct: expressed in transfected cells; host or cells: HEK293 (ATCC #CRL-1573), stably transfected with pIRESneo2 expression plasmid
In words: Radioligand binding on membranes of HEK293 cells stably expressing TAAR1. The following applies: radioligand [3H]-rac-2-(1,2,3,4-tetrahydro-1-naphthyl)-2-imidazoline at 60 nM, 4° C., 30 min. On the procedure: (§1) For the construction of expression plasmids the coding sequences of human, rat and mouse TAAR 1 were amplified from genomic DNA essentially as described by Lindemann et al.. The Expand High Fidelity PCR System (Roche Diagnostics) was used with 1.5 mM Mg^2+ and purified PCR products were cloned into pCR2.1-TOPO cloning vector (Invitrogen) following the instructions of the manufacturer. PCR products were subcloned into the pIRESneo2 vector (BD Clontech, Palo Alto, Calif.), and expression vectors were sequence verified before introduction in cell lines.
HEK293 cells (ATCC #CRL-1573) were cultured essentially as described Lindemann et al. (2005). For the generation of stably transfected cell lines HEK293 cells were transfected with the pIRESneo2 expression plasmids containing the TAAR coding sequences (described above) with Lipofectamine 2000 (Invitrogen) according to the instructions of the manufacturer, and 24 hrs post transfection the culture medium was supplemented with 1 mg/ml G418 (Sigma, Buchs, Switzerland). After a culture period of about 10 d clones were isolated, expanded and tested for responsiveness to trace amines (all compounds purchased from Sigma) with the cAMP Biotrak Enzyme immunoassay (EIA) System (Amersham) following the non-acetylation EIA procedure provided by the manufacturer.
Cells at confluence were rinsed with ice-cold phosphate buffered saline without Ca^2+ and Mg^2+ containing 10 mM EDTA and pelleted by centrifugation at 1000 rpm for 5 min at 4° C. The pellet was then washed twice with ice-cold phosphate buffered saline and cell pellet was frozen immediately by immersion in liquid nitrogen and stored until use at −80° C. Cell pellet was then suspended in 20 ml HEPES-NaOH (20 mM), pH 7.4 containing 10 mM EDTA, and homogenized with a Polytron (PT 3000, Kinematica) at 10,000 rpm for 10 s. The homogenate was centrifuged at 48,000×g for 30 min at 4° C. and the pellet resuspended in 20 ml HEPES-NaOH (20 mM), pH 7.4 containing 0.1 mM EDTA (buffer A), and homogenized with a Polytron at 10,000 rpm for 10 s. The homogenate was then centrifuged at 48,000×g for 30 min at 4° C. and the pellet resuspended in 20 ml buffer A, and homogenized with a Polytron at 10,000 rpm for 10 s. Protein concentration was determined by the method of Pierce (Rockford, Ill.). The homogenate was then centrifuged at 48,000×g for 10 min at 4° C., resuspended in HEPES-NaOH (20 mM), pH 7.0 including MgCl2 (10 mM) and […] homogenized with a Polytron at 10,000 rpm for 10 s.
Binding assay was performed at 4° C. in a final volume of 1 ml, and with an incubation time of 30 min. The radioligand [^3H]-rac-2-(1,2,3,4-tetrahydro-1-naphthyl)-2-imidazoline was used at a concentration equal to the calculated Kd value of 60 nM to give a bound at around 0.1% of the total added radioligand concentration, and a specific binding which represented approximately 70-80% of the total binding. Non-specific binding was defined as the amount of [^3H]-rac-2-(1,2,3,4-tetrahydro-1-naphthyl)-2-imidazoline bound in the presence of the appropriate unlabelled ligand (10 μM). Competing ligands were tested in a wide range of concentrations (10 pM-30 μM). […] Each experiment was performed in duplicate. All incubations were terminated by rapid filtration through UniFilter-96 plates (Packard Instrument Company) and glass filter GF/C, pre-soaked for at least 2 h in polyethylenimine 0.3%, and using a Filtermate 96 Cell Harvester (Packard Instrument Company). The tubes and filters were then washed 3 times with 1 ml aliquots of cold buffer B. Filters were not dried and soaked in Ultima gold (45 μl/well, Packard Instrument Company) and bound radioactivity was counted by a TopCount Microplate Scintillation Counter (Packard Instrument Company).

Experiment [2] has as its target T1, TAAR1. In words: Radioligand Kd used in the TAAR1 binding assay. The following applies: radioligand in the TAAR1 membrane binding assay; species not stated; read-out: calculated Kd value. As to the method:
as §1
Cells at confluence were rinsed with ice-cold phosphate buffered saline without Ca^2+ and Mg^2+ containing 10 mM EDTA and pelleted by centrifugation at 1000 rpm for 5 min at 4° C. The pellet was then washed twice with ice-cold phosphate buffered saline and cell pellet was frozen immediately by immersion in liquid nitrogen and stored until use at −80° C. […] Protein concentration was determined by the method of Pierce (Rockford, Ill.). […]
Binding assay was performed at 4° C. in a final volume of 1 ml, and with an incubation time of 30 min. […] The tubes and filters were then washed 3 times with 1 ml aliquots of cold buffer B. Filters were not dried and soaked in Ultima gold (45 μl/well, Packard Instrument Company) and bound radioactivity was counted by a TopCount Microplate Scintillation Counter (Packard Instrument Company).

The Ki is a measure of affinity in units of concentration, obtained from inhibition or displacement. What is called Kd is the concentration at which binding is half-saturated.

T1 sequence (Q923Y8 whole entry): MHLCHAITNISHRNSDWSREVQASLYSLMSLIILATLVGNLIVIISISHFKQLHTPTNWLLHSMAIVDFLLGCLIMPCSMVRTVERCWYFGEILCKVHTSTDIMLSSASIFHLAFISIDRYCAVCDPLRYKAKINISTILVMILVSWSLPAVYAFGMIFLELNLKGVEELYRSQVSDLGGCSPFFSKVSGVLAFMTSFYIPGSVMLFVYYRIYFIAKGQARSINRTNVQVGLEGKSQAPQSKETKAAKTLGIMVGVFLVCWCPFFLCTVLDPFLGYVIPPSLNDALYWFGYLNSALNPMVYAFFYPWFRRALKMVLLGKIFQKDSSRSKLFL

As for `CCN(C[C@@H]1CCN1)c1cccc(OC)c1` [Example 19, (S)-1-Azetidin-2-ylmethyl-ethyl-(3-methoxy-phenyl)-amine], the affinity at TAAR1 [1] corresponds to a Ki of 0.0137 µM. This lies in the double-digit nanomolar range.

In the case of `COc1cc(N(C)C[C@@H]2CCCN2)ccc1Cl` [Example 8, (4-Chloro-3-methoxy-phenyl)-methyl-(8)-1-pyrrolidin-2-ylmethyl-amine], the Ki at TAAR1 [1] amounted to 0.0859 µM. This Ki is about 6.3-fold higher than that of the molecule before. Take `CCN(C[C@@H]1CCN1)c1ccccc1` [Example 18, (S)-1-Azetidin-2-ylmethyl-ethyl-phenyl-amine]: on TAAR1 [1], the Ki was 0.0092 µM. Still for that read-out and setting: under `CC(C)N(C[C@@H]1CCN1)c1ccc(Cl)cc1` [Example 22, (S)-1-Azetidin-2-ylmethyl-(4-chloro-phenyl)-isopropyl-amine] stands 0.041 µM; under `CC(C)N(C[C@@H]1CCCN1)c1ccc(Cl)c(Cl)c1` [Example 13, (3,4-Dichloro-phenyl)-isopropyl-(S)-1-pyrrolidin-2-ylmethyl-amine], 0.005 µM.

In turn, `CCN(C[C@@H]1CCCN1)c1ccc(Cl)cc1` [Example 11, (4-Chloro-phenyl)-ethyl-(8)-1-pyrrolidin-2-ylmethyl-amine] had a Ki on TAAR1 [1] of 0.0131 µM. Against the preceding molecule, the Ki is about 2.6-fold higher. `CCN(C[C@H]1CCCN1)c1cccc(Oc2ccccc2)c1` [Example 3, Ethyl-(3-phenoxy-phenyl)-(R)-1-pyrrolidin-2-ylmethyl-amine] gave a Ki at TAAR1 [1] of 0.0044 µM. `CCN(C[C@@H]1CCCN1)c1cccc(Oc2ccccc2)c1` [Example 4, Ethyl-(3-phenoxy-phenyl)-(S)-1-pyrrolidin-2-ylmethyl-amine] showed a Ki on TAAR1 [1] of 0.0172 µM. Same read-out and setting: under `CN(C[C@@H]1CCN1)c1ccc(Cl)cc1` [Example 21, (S)-1-Azetidin-2-ylmethyl-(4-chloro-phenyl)-methyl-amine] stands 0.021 µM; under `Clc1ccc(N(Cc2ccccc2)C[C@@H]2CCN2)cc1` [Example 23, (S)-1-Azetidin-2-ylmethyl-benzyl-(4-chloro-phenyl)-amine], 0.0107 µM. Still for that read-out and setting: under `CCN(C[C@@H]1CCCN1)c1ccc(Cl)c(Cl)c1` [Example 6, (3,4-Dichloro-phenyl)-ethyl-(S)-1-pyrrolidin-2-ylmethyl-amine] stands 0.0028 µM; under `CCN(C[C@@H]1CCN1)c1cccc(Br)c1` [Example 20, (S)-1-Azetidin-2-ylmethyl-(3-bromo-phenyl)-ethyl-amine], 0.0047 µM; under `CCN(C[C@@H]1CCCN1)c1ccc(Cl)c(OC)c1` [Example 9, (4-Chloro-3-methoxy-phenyl)-ethyl-(8)-1-pyrrolidin-2-ylmethyl-amine], 0.0092 µM.

Turning to `CCN(C[C@H]1CCCN1)c1ccc(Cl)cc1` [Example 16, (4-Chloro-phenyl)-ethyl-(R)-1-pyrrolidin-2-ylmethyl-amine], on TAAR1 [1], the Ki stood at 0.0056 µM. Turning to `c1ccc2c(c1)CCCC2C1=NCCN1` (racemic) [[^3H]-rac-2-(1,2,3,4-tetrahydro-1-naphthyl)-2-imidazoline], the Kd at TAAR1 [2] was 60 nM. For the molecule `COc1cc(N(C[C@@H]2CCCN2)C(C)C)ccc1Cl` [Example 12, (4-Chloro-3-methoxy-phenyl)-isopropyl-(S)-1-pyrrolidin-2-ylmethyl-amine], on TAAR1 [1], the Ki came to 0.0213 µM.

The values above are taken from patent US20130005988A1, “2-AZETIDINEMETHANEAMINES AND 2-PYRROLIDINEMETHANEAMINES AS TAAR-LIGANDS” (priority 2007, published 2013).
